In US5466858A, “Method of producing straight-chain acrylonitrile dimers” (priority 1993, dated 1995):

Settings: in water, ionic strength 0 to 0.1 mole/liter, 25° C.

SMILES | pKa
O=C(O)c1ccc(Cl)c(Cl)c1 [3,4-dichlorobenzoic acid] | 3.64
O=C(O)c1ccccc1F [o-fluorobenzoic acid] | 3.27
N#Cc1cccc(C(=O)O)c1 [m-cyanobenzoic acid] | 3.60
O=C(O)c1c(Cl)cccc1Cl [2,6-dichlorobenzoic acid] | 1.82
Nc1ccccc1C(=O)O [Anthranilic acid] | 4.79
COc1ccccc1C(=O)O [o-methoxybenzoic acid] | 4.09
CNc1ccccc1C(=O)O [N-methylanthranilic acid] | 5.34
O=C(O)c1cccc(Cl)c1 [m-chlorobenzoic acid] | 3.82

Same assay, conditions: water

SMILES | pKa
O=C(O)c1ccccc1Br [o-bromobenzoic acid] | 2.85
O=C(O)c1c(F)cccc1F [2,6-difluorobenzoic acid] | 2.31
O=C(O)c1cccc(C(F)(F)F)c1 [m-trifluoromethylbenzoic acid] | 3.77
CC(=O)c1ccccc1C(=O)O [o-acetylbenzoic acid] | 3.79
Cc1cccc(C(=O)O)c1 [m-methylbenzoic acid, reference compound] | 4.27

More lines, now with the values ahead:

pKa | SMILES
3.46 | O=C(O)c1ccccc1-c1ccccc1 [o-phenylbenzoic acid]
3.70 | CC(=O)c1ccc(C(=O)O)cc1 [p-acetylbenzoic acid]
1.48 | O=C(O)c1c(F)c(F)c(F)c(F)c1F [pentafluorobenzoic acid, reference compound]
2.92 | O=C(O)c1ccccc1Cl [o-chlorobenzoic acid]
